Assay results as given in US5874402A, “Use of cell membrane permeants in the treatment of cellular proliferative diseases” (Matrix Pharmaceutical, Inc., priority 1997, dated 1999).

Columns and labels:
RIF-1 tumors = experiment: RIF-1 murine tumor growth delay after intratumoral injection (days to 4× tumor volume; T/C); assay type: in vivo, murine (C3H mice); design: key to Treated (Table 7 column): days for tumors to reach 4x baseline volume
Experimental: (§1) When the introduced tumors reached 100 mm^3, the mice were ready for testing. During the course of the experiments, the treated and control tumors were measured three times per week by Vernier calipers and the tumor volumes were calculated using the following formula: […]
where D1 -D3 are tumor diameters in millimeters. The number of days for tumors to reach four times (4×) their baseline volume was used as a parameter of treatment effectiveness. Therefore, a longer delay in tumor growth meant greater antitumor efficacy.

ovarian cancer cells = details: in vitro; cells first exposed to digitonin; cited from earlier work
C3H mice = experiment: Lethal toxicity (deaths) after intratumoral injection in RIF-1 tumor-bearing C3H mice; assay type: in vivo
Experimental: as §1, with “For each of the following experiments, transplantable murine fibrosarcoma RIF-1 tumors were grown intradermally in the flank of 3-7 month old female C3H mice (2×10^5 cells were injected). When” for “When”

[1] = Table 6, agent 40 mg/kg (BFA: DMSO as solvent), saponin 10 mg/kg 1 hr prior where combined
[2] = Table 7, dose printed 10, 4 mg/kg (saponin, vinblastine)

## C=C1O[C@@](CO)(n2cnc3c(N)ncnc32)[C@H](O)[C@@H]1O [Decoyinine]
RIF-1 tumors; [1]
  T/C (ratio of tumor growth delay of treated tumors to untreated controls): 1.0

## N.N.[Cl][Pt][Cl] [cisplatin]
Ovarian cancer cells
  Uptake of cisplatin by ovarian cancer cells: enhanced uptake

## O=c1c(-c2ccc(O)cc2)coc2cc(O)cc(O)c12 [Genistein]
RIF-1 tumors; Table 6, agent 80 mg/kg, saponin 10 mg/kg 1 hr prior where combined
  T/C (ratio of tumor growth delay of treated tumors to untreated controls): 1.1

## CC[C@]1(O)C[C@@H]2CN(CCc3c([nH]c4ccccc34)[C@@](C(=O)OC)(c3cc4c(cc3OC)N(C)[C@H]3[C@@](O)(C(=O)OC)[C@H](OC(C)=O)[C@]5(CC)C=CCN6CC[C@]43[C@@H]65)C2)C1 [Vinblastine(VLB), Vinblastine]
RIF-1 tumors; [2]
  Treated (Table 7 column): 14.1 ± 1.57
RIF-1 tumors; in conjunction with saponin (Table 7)
  Efficacy of vinblastine, in words: greatly enhances the efficacy of the vinblastine
RIF-1 tumors; with saponin and collagen gel matrix (Table 7)
  Efficacy of vinblastine, in words: further enhances the efficacy of vinblastine
C3H mice; [2]
  Toxicity Deaths/# mice: 0/5
C3H mice; vinblastine with saponin and collagen gel matrix (Table 7)
  Lethal toxic side effects, in words: decreasing the observed lethal toxic side effects

## Neomycin sulfate [Neomycin sulfate (NS)]
RIF-1 tumors; [1]
  T/C (ratio of tumor growth delay of treated tumors to untreated controls): 0.7

## C[C@H]1O[C@@H](O[C@H]2[C@@H](O)C[C@H](O[C@H]3[C@@H](O)C[C@H](O[C@H]4CC[C@@]5(C)[C@H](CC[C@@H]6[C@@H]5CC[C@]5(C)[C@@H](C7=CC(=O)OC7)CC[C@]65O)C4)O[C@@H]3C)O[C@@H]2C)C[C@H](O)[C@@H]1O [Digitoxin]
RIF-1 tumors; Table 5, permeant 40 mg/kg, no TNF
  T/C (ratio of tumor growth delay of treated tumors to untreated controls): 0.99

## N#C/C(=C\c1ccc(O)c(O)c1)C(N)=S [Tyrphostin 47]
RIF-1 tumors; Table 6, agent 60 mg/kg, EtOH as solvent, saponin 10 mg/kg 1 hr prior where combined
  T/C (ratio of tumor growth delay of treated tumors to untreated controls): 1.1

## C[C@H]1CCC/C=C/[C@@H]2C[C@H](O)C[C@H]2[C@H](O)/C=C/C(=O)O1 [Brefeldin A(BFA), Brefeldin A]
RIF-1 tumors; [1]
  T/C (ratio of tumor growth delay of treated tumors to untreated controls): 2.6

## Cc1ccc(C(=O)Nc2ccc(S(=O)(=O)O)c3cc(S(=O)(=O)O)cc(S(=O)(=O)O)c23)cc1NC(=O)c1cccc(NC(=O)Nc2cccc(C(=O)Nc3cc(C(=O)Nc4ccc(S(=O)(=O)O)c5cc(S(=O)(=O)O)cc(S(=O)(=O)O)c45)ccc3C)c2)c1 [Suramin]
RIF-1 tumors; Table 6, agent 20 mg/kg, saponin 10 mg/kg 1 hr prior where combined
  T/C (ratio of tumor growth delay of treated tumors to untreated controls): 1.0

## Lysolecithin(type 1)
RIF-1 tumors; Table 5, permeant 10 mg/kg, no TNF
  T/C (ratio of tumor growth delay of treated tumors to untreated controls): 1.27
